Results: US20210275657A1, “NEOANTIGENS AND USES THEREOF” (BioNTech US Inc., priority 2018, published 2021)
Where no end group is shown, it is not given here.

Columns and labels:
indicated HLA alleles [1] = assay: Affinity of mutant BTK neopeptides for indicated HLA alleles; format: binding, human
Method: (§1) Multiple peptides containing neoepitopes in the table below were either expressed or loaded onto antigen presenting cells. Mass spectrometry was then performed and the affinity of the neoepitopes for indicated HLA alleles were determined, and the stability of the neoepitopes with the HLA alleles were determined.

indicated HLA alleles [2] = biological target: T1, indicated HLA alleles (Homo sapiens, UniProt P04439); assay: as above; format: binding
Method: as §1

indicated HLA alleles [3] = assay: Stability of mutant BTK neopeptides with the HLA alleles; format: binding, human
Method: as §1

indicated HLA alleles [4] = biological target: T1, indicated HLA alleles; assay: as above; format: binding; conditions: BTK, C481S; HLA A03.01
Method: as §1

indicated HLA alleles [5] = assay: Stability of GATA3 neoORF neoepitopes with the HLA alleles (Example 9, Table 4); format: binding, human
Method: (§2) Multiple peptides containing the neoepitopes in Table 4 below were expressed or loaded onto antigen presenting cells (APCs). Mass spectrometry was then performed and the affinity of the neoepitopes for the indicated HLA alleles and stability of the neoepitopes with the HLA alleles was determined.

indicated HLA alleles [6] = assay: Affinity of GATA3 neoORF neoepitopes for the indicated HLA alleles (Example 9, Table 4); format: binding, human; conditions: read-out: Observed MHC affinity
Method: as §2

indicated HLA alleles [7] = biological target: T1, indicated HLA alleles; assay: as above; format: binding
Method: as §2

indicated HLA alleles [8] = biological target: T2, indicated HLA alleles (Homo sapiens, UniProt P01889); assay: Affinity of mutant BTK neopeptides for indicated HLA alleles; format: binding
Method: as §1

HLA-A02:01 [9] = biological target: T3, HLA-A02:01 (Homo sapiens, UniProt P04439, D140Y/D185E/D98H/E176V/E277Q/G131W/G231S/I119V/I121R/I166T/I218V/L300P/L318F/N151K/N90K/P208A/P217A/Q86G/Q94H/R138H/R169H/T345S); assay: Stability measurements, pMHC-I dissociation with 125I light chain (Example 20); format: binding
Method: (§3) To measure the binding stability of peptides to Class I MHC, synthetic genes encoding biotinylated MHC-I heavy and light chains are expressed in E. coli and purified from inclusion bodies using standard methods. […] These reactions were carried out in streptavidin coated microplates to bind the biotinylated MHC-I heavy chains to the surface and allow measurement of radiolabeled light chain to monitor complex formation. Dissociation was initiated by addition of higher concentrations of unlabeled light-chain and incubation at 37° C. Stability was defined as the length of time in hours it takes for half of the complexes to dissociate, as measured by scintillation counts. Duplicate measurements were performed. The average of the two measurements was taken as the stability.

HLA-A02:01 [10] = biological target: T3, HLA-A02:01; assay: Affinity measurements, competition with radiolabeled peptide (Example 20); format: binding
HLA-B07:02 [11] = biological target: T4, HLA-B07:02 (Homo sapiens, UniProt P01889); assay: Stability measurements, pMHC-I dissociation with 125I light chain (Example 20); format: binding
Method: as §3

HLA-B07:02 [12] = biological target: T4, HLA-B07:02; assay: Affinity measurements, competition with radiolabeled peptide (Example 20); format: binding
HLA-B07:02 [13] = biological target: T4, HLA-B07:02; assay: Detection of GATA3 neoORF peptides by mass spectrometry (Example 8); format: cell-based; conditions: 293T cells transduced with GATA3 neoORF lentiviral vector, expressing HLA-B07:02; eluted peptides, MS/MS
indicated HLA alleles [14] = biological target: T2, indicated HLA alleles; assay: Affinity of GATA3 neoORF neoepitopes for the indicated HLA alleles (Example 9, Table 4); format: binding
Method: as §2

[15] = ovarian carcinoma patients, poly-ICLC with NYESO-1 peptide vaccine (in addition to Montanide), phase 1 study; cited from earlier work

YMANGSLLNY
Kd (indicated HLA alleles [1]; BTK, C481S, HLA A01.01): 13.2 nM
Kd (indicated HLA alleles [1]; BTK, C481S, HLA A11.01): 974 nM
Kd (indicated HLA alleles [2]): 95.9 nM
Stability (1/2 hr) (indicated HLA alleles [3]; BTK, C481S, HLA A01.01): 0.8662 h
Stability (1/2 hr) (indicated HLA alleles [4]): 0.2791 h

VLWTTPPLQH
Observed MHC stability (indicated HLA alleles [5]; Allele A03:01): 0.3 h
Observed MHC stability (indicated HLA alleles [5]; Allele A11:01): 0 h
Kd (indicated HLA alleles [6]; Allele A11:01): 4540 nM
Kd (indicated HLA alleles [7]): 16 nM

CSCC[C@H](NC(=O)[C@H](CCC(=O)O)NC(=O)[C@H](CCCNC(=N)N)NC(=O)[C@H](CC(C)C)NC(=O)[C@H](Cc1ccc(O)cc1)NC(=O)[C@H](CC(N)=O)NC(=O)[C@H](CC(C)C)NC(=O)[C@H](CC(C)C)NC(=O)[C@@H](N)CO)C(=O)O
Kd (indicated HLA alleles [8]): 866 nM
Kd (indicated HLA alleles [1]; BTK_C481S, HLA A02.01): 67.7 nM
Kd (indicated HLA alleles [1]; BTK_C481S, HLA B08.01): 960 nM
Stability (1/2 hr) (indicated HLA alleles [3]; BTK_C481S, HLA A02.01): 3.044 h
Stability (1/2 hr) (indicated HLA alleles [3]; BTK_C481S, HLA B07.02): 0 h
Stability (1/2 hr) (indicated HLA alleles [3]; BTK_C481S, HLA B08.01): 0 h

TLQRSSLWCL
Observed MHC stability (indicated HLA alleles [5]; Allele A02.01): 0.5 h
Experiment 1 half-life (HLA-A02:01 [9]): 0.5 h
Experiment 2 half-life (HLA-A02:01 [9]): 0.5 h
Average half-life (HLA-A02:01 [9]; average of experiments 1 and 2): 0.5 h
Kd (indicated HLA alleles [6]; Allele A02.01): 118 nM
IC50 (HLA-A02:01 [10]): 281 nM

KPKRDGYMFL
Observed MHC stability (indicated HLA alleles [5]; Allele B07:02): 3.3 h
Experiment 1 half-life (HLA-B07:02 [11]): 3.3 h
Experiment 2 half-life (HLA-B07:02 [11]): 3.3 h
Average half-life (HLA-B07:02 [11]; average of experiments 1 and 2): 3.3 h
IC50 (HLA-B07:02 [12]): 115 nM
detected by mass spectrometry (HLA-B07:02 [13]): detected
Kd (indicated HLA alleles [14]): 98 nM

CSCC[C@H](N)C(=O)N[C@@H](C)C(=O)N[C@@H](CC(N)=O)C(=O)NCC(=O)N[C@@H](CO)C(=O)N[C@@H](CC(C)C)C(=O)N[C@@H](CC(C)C)C(=O)N[C@@H](CC(N)=O)C(=O)N[C@@H](Cc1ccc(O)cc1)C(=O)O
Kd (indicated HLA alleles [1]; BTK, C481S, HLA A01.01): 439 nM
Kd (indicated HLA alleles [1]; BTK, C481S, HLA A11.01): 536 nM
Kd (indicated HLA alleles [2]): 35.6 nM
Stability (1/2 hr) (indicated HLA alleles [3]; BTK, C481S, HLA A01.01): 0.2164 h
Stability (1/2 hr) (indicated HLA alleles [4]): 0.238 h

poly-ICLC
patients showing induction of CD4+ and CD8+ T cell and antibody responses to the peptide [15]: > 90%
